Assay results as given in US7892350B2, “Sacrificial agents for fly ash concrete” (Boral Material Technologies Inc., priority 2003, dated 2011).
Where two headings read alike, the source gives them in different places.

Tests used:
[1] = Hansch, C. et al. (1995), cited from earlier work
[2] = Second sacrificial agent testing protocol: paste air measurements with DDBS (0.0125 wt %) and rating; settings: for B1 + 0.0125% DDBS + 0.05% SA (air entrainment) / B1 + 0.0125% DDBS + 0.1% SA (air entrainment): B1 FA/cement paste; for PCA + 0.1% SA (level of air entrainment by the candidate sacrificial agent): Portland cement paste (PCA); for SA Rating (0-4): sacrificial agent overall rating index; for Overall performance rating (second protocol rating): key: 0: Fail; 1: Poor; 2: Good; 3: Preferred; 4: Most preferred; for SA Rating (0-4): key: 0: Fail; 1: Poor; 2: Good; 3: Preferred; 4: Most preferred
Summary of the method: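 Air entrainment was measured in cement pastes of fixed composition and fluidity. The candidate agent was tested alone at 0.1 wt % in a cement-only paste. It was also tested at 0.05 and 0.1 wt % in a fly ash (B1)-cement paste with DDBS, where air recovery was calculated against the same paste without agent.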

[3] = Air entrainment in mortars (ASTM C185-88); settings: for decrease of variability (RSD values): fly ash mortars, Air 30 combined with the SA versus Air 30 alone
Description: Air entrainment were measured in mortars containing portland cement only (control), or a combination of portland cement and fly ash in the ratio 70:30;
The mix compositions are given in the Table below and the measurements were performed according to standard protocols described in ASTM C185-88

[4] = 30:70 fly ash B1 (LOI 5.01%):cement mortar, 0.002 wt % Air 30 alone or +0.05 wt % SA
[5] = 30:70 fly ash B1 (LOI 5.01%):cement mortar, 0.005 wt % Air 40 alone or +0.05 wt % SA
[6] = 30:70 fly ash C1 (LOI 0.70%):cement mortar, 0.002 wt % Air 30 alone or +0.05 wt % SA
[7] = 30:70 fly ash C1 (LOI 0.70%):cement mortar, 0.005 wt % Air 40 alone or +0.05 wt % SA
[8] = 30:70 fly ash C2 (LOI 3.04%):cement mortar, 0.002 wt % Air 30 alone or +0.05 wt % SA
[9] = 30:70 fly ash C2 (LOI 3.04%):cement mortar, 0.005 wt % Air 40 alone or +0.05 wt % SA
[10] = 30:70 fly ash C3 (LOI 2.54%):cement mortar, 0.002 wt % Air 30 alone or +0.05 wt % SA
[11] = 30:70 fly ash C3 (LOI 2.54%):cement mortar, 0.005 wt % Air 40 alone or +0.05 wt % SA
[12] = 30:70 fly ash D (LOI […]):cement mortar, 0.002 wt % Air 30 alone or +0.05 wt % SA
[13] = 30:70 fly ash D (LOI […]):cement mortar, 0.005 wt % Air 40 alone or +0.05 wt % SA
[14] = 30:70 fly ash H1 (LOI 8.45%):cement mortar, 0.002 wt % Air 30 alone or +0.05 wt % SA
[15] = 30:70 fly ash H1 (LOI 8.45%):cement mortar, 0.005 wt % Air 40 alone or +0.05 wt % SA
[16] = 30:70 fly ash M1 (LOI […]):cement mortar, 0.002 wt % Air 30 alone or +0.05 wt % SA
[17] = 30:70 fly ash M1 (LOI […]):cement mortar, 0.005 wt % Air 40 alone or +0.05 wt % SA
[18] = 30:70 fly ash M2 (LOI 8.78%):cement mortar, 0.002 wt % Air 30 alone or +0.05 wt % SA
[19] = 30:70 fly ash M2 (LOI 8.78%):cement mortar, 0.005 wt % Air 40 alone or +0.05 wt % SA
[20] = 30:70 fly ash M3 (LOI 3.15%):cement mortar, 0.002 wt % Air 30 alone or +0.05 wt % SA
[21] = 30:70 fly ash M3 (LOI 3.15%):cement mortar, 0.005 wt % Air 40 alone or +0.05 wt % SA
[22] = 30:70 fly ash R (LOI 0.17%):cement mortar, 0.002 wt % Air 30 alone or +0.05 wt % SA
[23] = 30:70 fly ash R (LOI 0.17%):cement mortar, 0.005 wt % Air 40 alone or +0.05 wt % SA
[24] = PCA cement mortar, no fly ash, 0.0017 wt % Air 30 alone or +0.05 wt % SA
[25] = PCA cement mortar, no fly ash, 0.004 wt % Air 40 alone or +0.05 wt % SA
[26] = over the fly ash mortars of Table 12, 0.002 wt % Air 30 alone or +0.05 wt % SA
[27] = over the fly ash mortars of Table 13, 0.005 wt % Air 40 alone or +0.05 wt % SA

OCCOc1ccccc1 [EGPE, Ethylene glycol phenyl ether]
Experimental LogKow [1]: 1.16 | Experimental LogKow ([1]; listed as 2-Phenoxyethanol): Experimental LogKow: 1.16 | Overall performance rating (second protocol rating) [2]: 4 | B1 + 0.0125% DDBS + 0.05% SA (air entrainment) [2]: 6.9 | B1 + 0.0125% DDBS + 0.1% SA (air entrainment) [2]: 8.1 | PCA + 0.1% SA (level of air entrainment by the candidate sacrificial agent) [2]: 1.5 | SA Rating (0-4) [2]: 4 | Air entrainment [3, 4]: 3.6 | Air entrainment ([3]; 30:70 fly ash B1 (LOI 5.01%):cement mortar, 0.005 wt % Air 40 +0.1 wt % EGPE): 9.3 | Air entrainment [3, 5]: 5.4 | Air entrainment [3, 6]: 4.7 | Air entrainment ([3]; 30:70 fly ash C1 (LOI 0.70%):cement mortar, 0.005 wt % Air 40 +0.1 wt % EGPE): 12.6 | Air entrainment [3, 7]: 6.6 | Air entrainment [3, 8]: 6.9 | Air entrainment ([3]; 30:70 fly ash C2 (LOI 3.04%):cement mortar, 0.005 wt % Air 40 +0.1 wt % EGPE): 12.4 | Air entrainment [3, 9]: 8.8 | Air entrainment [3, 10]: 5.9 | Air entrainment ([3]; 30:70 fly ash C3 (LOI 2.54%):cement mortar, 0.005 wt % Air 40 +0.1 wt % EGPE): 9.8 | Air entrainment [3, 11]: 8.0 | Air entrainment [3, 12]: 14.9 | Air entrainment ([3]; 30:70 fly ash D (LOI […]):cement mortar, 0.005 wt % Air 40 +0.1 wt % EGPE): 13.2 | Air entrainment [3, 13]: 12.8 | Air entrainment [3, 14]: 3.1 | Air entrainment ([3]; 30:70 fly ash H1 (LOI 8.45%):cement mortar, 0.005 wt % Air 40 +0.1 wt % EGPE): 5.7 | Air entrainment [3, 15]: 3.1 | Air entrainment [3, 16]: 5.4 | Air entrainment ([3]; 30:70 fly ash M1 (LOI […]):cement mortar, 0.005 wt % Air 40 +0.1 wt % EGPE): 12.7 | Air entrainment [3, 17]: 8.0 | Air entrainment [3, 18]: 2.8 | Air entrainment ([3]; 30:70 fly ash M2 (LOI 8.78%):cement mortar, 0.005 wt % Air 40 +0.1 wt % EGPE): 6.7 | Air entrainment [3, 19]: 4.9 | Air entrainment [3, 20]: 7.6 | Air entrainment ([3]; 30:70 fly ash M3 (LOI 3.15%):cement mortar, 0.005 wt % Air 40 +0.1 wt % EGPE): 18.3 | Air entrainment [3, 21]: 10.2 | Air entrainment [3, 22]: 13.5 | Air entrainment ([3]; 30:70 fly ash R (LOI 0.17%):cement mortar, 0.005 wt % Air 40 +0.1 wt % EGPE): 15.2 | Air entrainment [3, 23]: 13.5 | Air entrainment [3, 24]: 14.0 | Air entrainment ([3]; PCA cement mortar, no fly ash, 0.004 wt % Air 40 +0.1 wt % EGPE): 16.2 | Air entrainment [3, 25]: 14.9 | decrease of variability (RSD values) [3]: approximately 50% | Average of air entrained [3, 26]: 6.8% | Average of air entrained ([3]; over the fly ash mortars of Table 13, 0.005 wt % Air 40 +0.1 wt % EGPE): 12% | Average of air entrained [3, 27]: 8.1%

O=S(=O)([O-])c1ccc2ccccc2c1.[Na+] [NS, Sodium 2-Naphthalene sulfonate]
Overall performance rating (second protocol rating) [2]: 3 | B1 + 0.0125% DDBS + 0.05% SA (air entrainment) [2]: 4.4 | B1 + 0.0125% DDBS + 0.1% SA (air entrainment) [2]: 5.3 | PCA + 0.1% SA (level of air entrainment by the candidate sacrificial agent) [2]: 1.0 | SA Rating (0-4) [2]: 3 | Air entrainment [3, 4]: 4.0 | Air entrainment [3, 5]: 5.6 | Air entrainment [3, 6]: 4.3 | Air entrainment [3, 7]: 7.2 | Air entrainment [3, 8]: 5.9 | Air entrainment [3, 9]: 7.5 | Air entrainment [3, 10]: 4.8 | Air entrainment [3, 11]: 7.8 | Air entrainment [3, 12]: 11.4 | Air entrainment [3, 13]: 12.6 | Air entrainment [3, 14]: 2.7 | Air entrainment [3, 15]: 3.0 | Air entrainment [3, 16]: 5.8 | Air entrainment [3, 17]: 8.2 | Air entrainment [3, 18]: 2.8 | Air entrainment [3, 19]: 5.0 | Air entrainment [3, 20]: 6.9 | Air entrainment [3, 21]: 10.0 | Air entrainment [3, 22]: 12.0 | Air entrainment [3, 23]: 13.7 | Air entrainment [3, 24]: 13.4 | Air entrainment [3, 25]: 14.8 | decrease of variability (RSD values) [3]: approximately 50% | Average of air entrained [3, 26]: 6.1% | Average of air entrained [3, 27]: 8.0%
